The text below walks through data of patent US7514245B2, “Method for producing chiral α-hydroxycarboxylic acids by enzymatic hydrolysis of chiral cyanohydrins” (DSM Fine Chemicals Austria NFG GmbH & Co. KG, priority 2003, dated 2009).

The target of the test is T1, Rhodococcus erythropolis NCIMB 11540 amidase (Rhodococcus erythropolis, UniProt P22984).
T1 construct: made in house; host or cells: E. coli B BL21 (plasmid pMS470-33/3/1/11), crude lysate
T1 sequence (P22984 1-521): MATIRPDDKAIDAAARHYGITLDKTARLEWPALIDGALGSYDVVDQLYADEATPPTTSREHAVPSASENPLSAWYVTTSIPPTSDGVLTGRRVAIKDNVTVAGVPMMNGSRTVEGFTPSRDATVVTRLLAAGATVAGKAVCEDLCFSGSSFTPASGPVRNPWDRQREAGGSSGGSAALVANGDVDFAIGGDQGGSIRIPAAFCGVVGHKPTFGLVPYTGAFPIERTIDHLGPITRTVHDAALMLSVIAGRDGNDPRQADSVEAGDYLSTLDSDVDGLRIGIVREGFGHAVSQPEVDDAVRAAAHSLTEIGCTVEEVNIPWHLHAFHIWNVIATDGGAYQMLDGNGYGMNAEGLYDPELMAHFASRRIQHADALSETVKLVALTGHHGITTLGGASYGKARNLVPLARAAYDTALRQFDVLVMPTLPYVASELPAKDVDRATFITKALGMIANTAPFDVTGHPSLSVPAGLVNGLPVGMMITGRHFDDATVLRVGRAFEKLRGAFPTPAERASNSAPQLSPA
In words: Determination of amidase activity of crude lysates with acetamide. It is filed as biochemical. The following applies: pMS470-33/3/1/11 lysate; acetamide (40 mM) in PBS buffer at 37° C.; indophenolblue method. The method, then: The E. coli B BL21 cells transformed by pMS470-33/3/1/11 were isolated on LB-ampicillin plates and an ONC of 100 ml of LB-ampicillin medium was inoculated with an individual colony. On the next morning a main culture consisting of 250 ml of SOC-ampicillin medium was inoculated into a 1000 ml chicane flask to an OD600 of 0.01 to 0.03 (Beckmann Photometer). […] After reaching the induction density (OD600=1 Beckmann Photometer), the cultures were induced by adding IPTG to a concentration of 0.3 mM. After an induction time of 16 h, the cells were harvested (centrifugation 3000·g, 10 min) and washed with sodium phosphate buffer (0.1 M, pH=7). The pellet produced was resuspended to approximately 5 ml total volume in wash buffer and disintegrated using an ultrasound probe (BRANSON Sonifier 250, 60% power setting, constant sonication; 5 times 30 s each with 1 min pause for cooling) with constant cooling to completeness (visual control of completeness under the microscope). […]
[…] The resultant blue coloration, after dilution of all samples and standards 1:10) with water, was quantified in the spectrophotometer (Perkin Elmer UV/VIS Spectrometer Lambda Bio) at 640 nm. By correlating the increase in blue coloration over time with the extinction values of the standards, the activity (μmol of released ammonium per minute) could be back-calculated.

Regarding `CC(N)=O` [acetamide], the “activity of crude lysates” value is “approximately 75 U/ml”.
